Target: Sphingosine kinase 1 (Homo sapiens, UniProt Q9NYA1)
Assay: Inhibition of recombinant full length GST-tagged human SPHK1 expressed in baculovirus expression system incubated for 1 hr in presence of ATP by Alexa Fluor 647 tracer based Adapta assay

Sphingosine kinase 1, sequence (Q9NYA1 whole entry): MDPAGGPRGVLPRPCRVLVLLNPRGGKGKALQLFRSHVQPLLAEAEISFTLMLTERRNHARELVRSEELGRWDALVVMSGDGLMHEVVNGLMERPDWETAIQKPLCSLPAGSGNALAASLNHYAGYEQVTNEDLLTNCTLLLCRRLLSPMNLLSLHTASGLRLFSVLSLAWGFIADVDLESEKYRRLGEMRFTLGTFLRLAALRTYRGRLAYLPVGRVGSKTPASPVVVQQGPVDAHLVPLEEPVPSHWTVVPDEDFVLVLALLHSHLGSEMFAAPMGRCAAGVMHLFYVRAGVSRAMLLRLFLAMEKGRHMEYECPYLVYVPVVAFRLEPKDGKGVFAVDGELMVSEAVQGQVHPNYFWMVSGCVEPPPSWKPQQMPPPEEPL

| SMILES | IC50 [µM] |
| --- | --- |
| O=C(N/N=C/C1CCCCC1)c1cc(-c2ccc3ccccc3c2)[nH]n1 | > 10 |
| COc1ccccc1/C=N/NC(=O)c1cc(-c2ccc3ccccc3c2)[nH]n1 | > 10 |
| O=C(N/N=C/c1cccc(O)c1)c1cc(-c2ccc3ccccc3c2)n[nH]1 | > 10 |
| COc1ccc(/C=N/NC(=O)c2cc(-c3ccc4ccccc4c3)[nH]n2)cc1OC | 6.55 |
| O=C(N/N=C/c1ccc(Cl)cc1)c1cc(-c2ccc3ccccc3c2)[nH]n1 | > 10 |
| O=C(N/N=C/c1c(O)ccc2ccccc12)c1cc(-c2ccc3ccccc3c2)n[nH]1 | > 10 |
| O=C(N/N=C/c1cccnc1)c1cc(-c2ccc3ccccc3c2)[nH]n1 | > 10 |
| COc1ccc(/C=N/NC(=O)c2cc(-c3ccc4ccccc4c3)[nH]n2)cc1 | > 10 |
| COc1ccc2ccccc2c1/C=N/NC(=O)c1cc(-c2ccc3ccccc3c2)[nH]n1 | > 10 |
| O=C(N/N=C/c1ccccc1)c1cc(-c2ccc3ccccc3c2)[nH]n1 | > 10 |
| O=C(N/N=C/c1cccc([N+](=O)[O-])c1)c1cc(-c2ccc3ccccc3c2)[nH]n1 | > 10 |
| O=C(N/N=C/c1ccc(O)cc1)c1cc(-c2ccc3ccccc3c2)n[nH]1 | > 10 |
| O=C(N/N=C/c1cccc2ccccc12)c1cc(-c2ccc3ccccc3c2)[nH]n1 | > 10 |
| O=C(N/N=C/c1ccc2c(c1)OCCO2)c1cc(-c2ccc3ccccc3c2)[nH]n1 | > 10 |
| COc1cccc(/C=N/NC(=O)c2cc(-c3ccc4ccccc4c3)[nH]n2)c1 | > 10 |
| O=C(N/N=C/c1ccccc1O)c1cc(-c2ccc3ccccc3c2)n[nH]1 | > 10 |
